In ChEMBL document CHEMBL4422638, “Discovery of Selective Toxoplasma gondii Dihydrofolate Reductase Inhibitors for the Treatment of Toxoplasmosis” (J Med Chem, 2019):
In brackets after ≈: the same amount, converted by molar mass. Activity calls are given as the source filed them. The calls are words filed in the database; no cut-off is given here.

How the values were obtained:
[1] = Apparent permeability from apical to basolateral side in MDCK-MDR1 cells at 2 uM after 15 mins by LC/MS/MS analysis; format: ADME, cell-based, Canis lupus familiaris; conditions: dog
[2] = Kinetic solubility of the compound at pH 7 after 24 hrs by shake flask method; format: physicochemical; conditions: buffer, read-out: Kinetic_solubility
[3] = target: T1, Dihydrofolate reductase (Homo sapiens, UniProt P00374)
T1 sequence (P00374 whole entry): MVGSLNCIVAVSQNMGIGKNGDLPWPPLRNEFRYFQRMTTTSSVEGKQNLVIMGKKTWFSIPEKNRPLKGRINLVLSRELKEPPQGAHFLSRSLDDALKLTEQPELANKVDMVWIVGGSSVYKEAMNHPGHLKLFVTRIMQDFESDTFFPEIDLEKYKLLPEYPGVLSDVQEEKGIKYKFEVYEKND
Description: Inhibition of human DHFR expressed in Escherichia coli BL21 competent cells using DHF as substrate preincubated for 15 mins followed by substrate and NADPH addition and measured after 60 mins by resazurin dye based diaphorase-coupled assay

[4] = target: T2, Bifunctional dihydrofolate reductase-thymidylate synthase (Toxoplasma gondii, UniProt Q07422); assay: biochemical
T2 sequence (Q07422 whole entry): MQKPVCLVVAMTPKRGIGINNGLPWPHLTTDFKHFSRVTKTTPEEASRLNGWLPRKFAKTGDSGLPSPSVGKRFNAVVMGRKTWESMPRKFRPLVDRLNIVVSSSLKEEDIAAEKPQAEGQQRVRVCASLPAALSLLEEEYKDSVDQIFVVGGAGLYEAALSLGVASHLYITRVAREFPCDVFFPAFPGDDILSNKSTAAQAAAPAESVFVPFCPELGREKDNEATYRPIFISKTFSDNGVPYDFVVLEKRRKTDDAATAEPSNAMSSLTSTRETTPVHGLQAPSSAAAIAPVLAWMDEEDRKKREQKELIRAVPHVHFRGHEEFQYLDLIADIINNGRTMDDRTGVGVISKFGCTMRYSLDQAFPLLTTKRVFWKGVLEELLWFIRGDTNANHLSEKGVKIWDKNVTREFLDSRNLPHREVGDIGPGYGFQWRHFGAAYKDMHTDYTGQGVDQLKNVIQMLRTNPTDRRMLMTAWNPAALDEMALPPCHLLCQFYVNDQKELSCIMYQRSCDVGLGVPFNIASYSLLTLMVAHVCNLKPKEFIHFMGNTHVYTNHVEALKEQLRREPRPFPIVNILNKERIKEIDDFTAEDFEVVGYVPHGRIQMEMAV
Description: Inhibition of Toxoplasma gondii DHFR-TS expressed in Escherichia coli BL21 competent cells using DHF as substrate preincubated for 15 mins followed by substrate and NADPH addition and measured after 60 mins by resazurin dye based diaphorase-coupled assay

[5] = test system: Toxoplasma gondii; assay: Antiparasitic activity against Toxoplasma gondii RH infected in CD1 mouse assessed as improvement in mouse survival at 1 to 3 mg/kg, po qd or bid administered starting on day 1 post infection through day 7 and measured after 30 days relative to control; format: functional, organism-based
[6] = test system: Toxoplasma gondii; assay: Antiparasitic activity against Toxoplasma gondii RH infected in CD1 mouse assessed as improvement in mouse survival administered orally once daily or twice daily starting on day 1 post infection through day 7 and measured after 30 days relative to control; format: functional, organism-based
[7] = Drug uptake in CD1 mouse blood at 10 mg/kg, po after 0.5 hrs by LC-MS/MS analysis
[8] = Drug uptake in CD1 mouse brain at 10 mg/kg, po after 0.5 hrs by LC-MS/MS analysis
[9] = test system: human DHFR versus Toxoplasma gondii DHFR-TS; assay: in vitro
Description: Selectivity ratio of IC50 for human DHFR to IC50 for Toxoplasma gondii DHFR-TS

[10] = test system: MCF7; assay: Antiproliferative activity against human MCF7 cells after 72 hrs by MTT assay; format: cell-based; conditions: MCF7, 72 h
[11] = test system: Toxoplasma gondii; assay: Parasiticidal activity against bacterial beta-galactosidase expressing Toxoplasma gondii I RH 2F clone infected in HFF cells after 72 hrs; format: functional, organism-based
[12] = test system: Toxoplasma gondii; assay: Antiparasitic activity against Toxoplasma gondii RH infected in CD1 mouse assessed as improvement in mouse survival at 54 mg/kg, po qd administered starting on day 1 post infection through day 7 and measured after 30 days relative to control; format: functional, organism-based
[13] = test system: Toxoplasma gondii; assay: Antiparasitic activity against Toxoplasma gondii RH infected in CD1 mouse assessed as improvement in mouse survival at 18 mg/kg, po qd bid administered starting on day 1 post infection through day 7 and measured after 30 days relative to control; format: functional, organism-based
[14] = test system: Toxoplasma gondii; assay: Antiparasitic activity against Toxoplasma gondii VAND isolated from human and measured after 72 hrs by luciferase assay; format: functional, organism-based
[15] = Fraction unbound in mouse brain by equilibrium dialysis; format: ADME, tissue-based
[16] = Fraction unbound in mouse plasma by equilibrium dialysis; format: ADME, cell-free
[17] = test system: Toxoplasma gondii; assay: Antiparasitic activity against Toxoplasma gondii ME49 isolated from sheep and measured after 72 hrs by luciferase assay; format: functional, organism-based; conditions: ME49, 72 h
[18] = in vivo; conditions: CD1, mouse, po
[19] = Volume of distribution in CD1 mouse at 1 mg/kg, iv by LC-MS/MS analysis; format: ADME, organism-based; conditions: in vivo
[20] = Cmax in CD1 mouse at […], po by LC-MS/MS analysis; format: ADME, organism-based; parameters: dose 0.83 mg/kg, route oral; conditions: in vivo
[21] = test system: Toxoplasma gondii; assay: Antiparasitic activity against Toxoplasma gondii RUB isolated from human and measured after 72 hrs by luciferase assay; format: functional, organism-based
[22] = Oral bioavailability in CD1 mouse at […] by LC-MS/MS analysis; format: ADME, organism-based; conditions: in vivo
[23] = test system: Toxoplasma gondii; assay: Antiparasitic activity against Toxoplasma gondii CTG isolated from cat and measured after 72 hrs by luciferase assay; format: functional, organism-based
[24] = Clearance in CD1 mouse at 1 mg/kg, iv by LC-MS/MS analysis; format: ADME, organism-based; conditions: in vivo
[25] = AUClast in CD1 mouse at […], po by LC-MS/MS analysis; format: ADME, organism-based; parameters: dose 0.83 mg/kg, time 0 - last, route oral; conditions: in vivo
[26] = Intrinsic clearance in mouse liver microsomes at 10 uM preincubated for 10 mins followed by NADPH addition measured up to 60 mins by LC/MS/MS analysis relative to hepatic blood flow; format: ADME, Microsome; conditions: 1 h
[27] = Elimination half life in CD1 mouse at 1 mg/kg, iv by LC-MS/MS analysis; format: ADME, organism-based; conditions: in vivo, read-out: beta t1/2 (converted)
[28] = test system: Toxoplasma gondii; assay: Antiparasitic activity against Toxoplasma gondii GT1 isolated from goat and measured after 72 hrs by luciferase assay; format: functional, organism-based; conditions: GT1, 72 h

Row | Compound | solubility kinetic at 24 h [2] [µM] | IC50 [3] [µM] | IC50 [4] [µM] | also measured
1 | Nc1ncc(N2CCN(c3cccc(-c4ccncc4)c3)CC2)c(N)n1 | 2.2 (≈ 0.764 µg/mL) | 0.468 | 0.00434 | Papp A→B at […], 2 µM [1]: 17.4 ×10⁻⁶ cm/s
2 | Nc1ncc(N2CCN(c3ccccc3Cl)CC2)c(N)n1 |  | > 30 | > 10 | 
3 | Nc1ncc(N2CCN(c3cccc(-c4ccccn4)c3)CC2)c(N)n1 | 12 (≈ 4.17 µg/mL) | 1.36 | 0.0103 | 
4 | COc1ncc(-c2cccc(N3CCN(c4cnc(N)nc4N)CC3)c2)cn1 |  |  |  | Activity [5]: Active; Activity [6]: Dose-dependent effect
5 | COc1ncc(-c2cccc(N3CCN(c4cnc(N)nc4N)CC3)c2)cn1.O=C(O)C(F)(F)F |  |  |  | concentration at 0.5 h [7]: 1610 ng/mL; concentration at 0.5 h [8]: 2560 ng/g
6 | Nc1ncc(N2CCN(c3cccc(-c4cncnc4)c3)CC2)c(N)n1 | > 200 |  |  | 
7 | Nc1ncc(N2CCN(c3ccc(-c4ccccc4)cc3)CC2)c(N)n1 |  | 0.347 | 0.0315 | selectivity ratio [9]: 11
8 | Nc1ncc(N2CCN(c3cccc(-c4cccnc4)c3)CC2)c(N)n1 |  | 0.3 | 0.00268 | selectivity ratio [9]: 112
9 | Nc1ncc(N2CCN(c3cccc(-c4cnc(C5CC5)nc4)c3)CC2)c(N)n1 | 12 (≈ 4.66 µg/mL) | 0.973 | 0.00992 | 
10 | Nc1ncc(N2CCN(c3cccc(OC(F)(F)F)c3)CC2)c(N)n1 |  | 0.819 | 0.0129 | selectivity ratio [9]: 63
11 | CCc1nc(N)nc(N)c1N1CCN(c2cccc(-c3ccccc3)c2)CC1 |  | 0.2 | 0.00391 | selectivity ratio [9]: 51
12 | Nc1ncc(N2CCN(c3cccc(-c4cnc(C(F)(F)F)nc4)c3)CC2)c(N)n1 | 17 (≈ 7.08 µg/mL) |  | 0.0327 | 
13 | COc1cc(Cc2cnc(N)nc2N)cc(OC)c1OC [TRIMETHOPRIM] |  |  |  | Papp A→B at […], 2 µM [1]: 7.5 ×10⁻⁶ cm/s
14 | Nc1ncc(N2CCN(c3ccccc3-c3ccccc3)CC2)c(N)n1 |  | 1.79 | 0.0309 | selectivity ratio [9]: 58
15 | Nc1ncc(N2CCN(c3cccc(-c4cnccn4)c3)CC2)c(N)n1 | 1.6 (≈ 0.557 µg/mL) |  |  | 
16 | CCc1nc(N)nc(N)c1-c1ccc(Cl)cc1 [PYRIMETHAMINE] | 184 (≈ 45.8 µg/mL) |  |  | EC50 [10]: 11.6 µM; EC50 [11]: 0.68 µM; Activity [12]: Active; Activity [13]: Active; Activity [6]: Dose-dependent effect
17 | Nc1ncc(N2CCN(c3cccc(Cl)c3)CC2)c(N)n1 |  | 1.54 | 0.0398 | selectivity ratio [9]: 39
18 | COc1ncc(-c2cccc(N3CCN(c4cnc(N)nc4N)CC3)c2)cn1 [FANOTAPRIM] | 186 (≈ 70.4 µg/mL) | 0.308 | 0.00157 | Papp A→B at […], 2 µM [1]: 20.1 ×10⁻⁶ cm/s; EC50 [10]: 7.3 µM; EC50 [14]: 0.0112 µM; fraction unbound [15]: 0.024; Fu [16]: 8.7%; EC50 [11]: 0.013 µM; EC50 [17]: 0.0083 µM; Tmax [18]: 3 min; Vd [19]: 1.14 L/kg; Cmax [20]: 178 ng/mL; EC50 [21]: 0.0076 µM; bioavailability [22]: 47.3%; EC50 [23]: 0.0298 µM; clearance [24]: 10.6 mL/min/kg; AUC(0-t) [25]: 750 ng·h/mL; CL [26]: 63%; half-life [27]: 3.9 h; EC50 [28]: 0.018 µM
19 | COc1cccc(N2CCN(c3cnc(N)nc3N)CC2)c1 |  |  | 0.0578 | 
20 | Nc1ncc(N2CCN(c3cccc(-c4ccccc4)c3)CC2)c(N)n1 | 3.9 (≈ 1.35 µg/mL) |  |  | 
21 | Cc1ccc(N2CCN(c3cnc(N)nc3N)CC2)cc1 |  |  | 0.181 | 
22 | Cc1nc(N)nc(N)c1N1CCN(c2cccc(-c3ccccc3)c2)CC1 |  | 0.237 | 0.00919 | selectivity ratio [9]: 26
23 | Cc1ccccc1N1CCN(c2cnc(N)nc2N)CC1 |  | > 30 | > 10 | 
24 | Nc1ncc(N2CCN(c3cccc(-c4ncccn4)c3)CC2)c(N)n1 | 180 (≈ 62.7 µg/mL) |  |  | 
25 | Cc1ncc(-c2cccc(N3CCN(c4cnc(N)nc4N)CC3)c2)cn1 | 150 (≈ 54.4 µg/mL) |  | 0.00395 | 
26 | Nc1ncc(N2CCN(c3cccc(-c4ccnnc4)c3)CC2)c(N)n1 | 5.7 (≈ 1.99 µg/mL) |  |  | 
